In patent publication US20060046968A1, “Prodrug substituted benzoxazoles as estrogenic agents” (priority 2004, published 2006):

Assays:
Lewis rats [1] = experiment: Lewis rat adjuvant-induced arthritis, inhibition protocol: joint score (maximal score per day 12); format: in vivo
Lewis rats [2] = experiment: Lewis rat adjuvant-induced arthritis, treatment protocol: tarsal joint histology (synovitis, Mankin); format: in vivo; conditions: 50 mg/kg, tarsal joints
[3] = system: human endometrial tissue implanted into ovariectomized athymic nude mice; experiment: Endometriosis test procedure: human endometrial tissue implanted into nude mice; format: in vivo, mouse
Procedure: This procedure is slightly modified from a published method [Bruner-Tran. et al., Journal of Clinical Investigation 99: 2851-2857 (1997)]. […] Lesions are allowed to establish for at least 10 days, then oral daily dosing begins and continues for at least 15 days. It should be noted that all mice have visible lesions at the start of dosing. At necropsy, the number of mice with lesions is determined, as well as the lesions per mouse.

[4] = Microsomal incubation in the presence of UDPGA (glucuronidation); format: in vitro ADME, rat; conditions: 100 μM, 37° C., 60 mins, with UDPGA
Procedure: An analytical scale incubation of ERB-041 with male SD rat liver microsomes in the presence of UDPGA was conducted in phosphate buffer (0.1 M, pH 7.4) containing 1 mg/mL rat liver microsomal protein with final concentrations of 5 mM magnesium chloride and 4 mM UDPGA. This pilot incubation (1.0 mL incubation volume) was conducted using a substrate concentration of 100 μM at 37° C. for 60 mins. Incubations were terminated by the addition of an equal volume of chilled acetonitrile. Large-scale incubations (a total of 37 incubations @ 5.0 mL incubation volume) to generate sufficient quantities of the glucuronide metabolites for structure elucidation were subsequently conducted as described above at 37° C. for 60 mins. Appropriate substrate controls and incubations without addition of UDPGA were also carried out. Reserved phase-HPLC was utilized for all metabolite analysis. To confirm the formation of glucuronide and sulfate conjugates of ERB-041 in pilot scale incubations, HPLC analysis was performed using an Agilent 1100 LC system equipped with a diode array detector (Agilent Technologies, Wilmington, Del.). […] Separation of the two metabolites was achieved using gradient solvent system B as described supra.

C=Cc1cc(O)cc2nc(-c3ccc(O)c(F)c3)oc12 [Example 24, 2-(3-FLUORO-4-HYDROXYPH ENYL)-7-VI NYL-1,3-BENZOXAZOL-5-OL]
Joint inflammation score (Lewis rats [1]; s.c. daily from Day 1, Day 1): 0.00 | Joint inflammation score (Lewis rats [1]; s.c. daily from Day 1, Day 2): 1.00 | Joint inflammation score (Lewis rats [1]; s.c. daily from Day 1, Day 3): 4.50 | Joint inflammation score (Lewis rats [1]; s.c. daily from Day 1, Day 4): 4.83 | Joint inflammation score (Lewis rats [1]; s.c. daily from Day 1, Day 5): 5.83 | Joint inflammation score (Lewis rats [1]; s.c. daily from Day 1, Day 6): 6.16 | Joint inflammation score (Lewis rats [1]; s.c. daily from Day 1, Day 7): 6.16 | Joint inflammation score (Lewis rats [1]; s.c. daily from Day 1, Day 8): 5.33 | Joint inflammation score (Lewis rats [1]; s.c. daily from Day 1, Day 9): 5.66 | Joint inflammation score (Lewis rats [1]; s.c. daily from Day 1, Day 10): 4.33 | Joint inflammation score (Lewis rats [1]; s.c. daily from Day 1, Day 11): 3.16 | Joint inflammation score (Lewis rats [1]; s.c. daily from Day 1, Day 12): 3.16 | Joint inflammation score (Lewis rats [1]; s.c. daily from Day 1, Day 13): 2.16 | Joint inflammation score (Lewis rats [1]; s.c. daily from Day 1, Day 14): 3.33 | Joint inflammation score (Lewis rats [1]; s.c. daily from Day 1, Day 15): 3.00 | Joint inflammation score (Lewis rats [1]; s.c. daily from Day 1, Day 16): 1.66 | Joint inflammation score (Lewis rats [1]; s.c. daily from Day 1, Day 17): 1.50 | Cartilage Cells (0-3), mean ± SD (Lewis rats [2]): 0.83 ± 0.75 | Cartilage Structure (0-6), mean ± SD (Lewis rats [2]): 1.58 ± 0.49 | Fibroplasia (0-3), mean ± SD (Lewis rats [2]): 0.42 ± 0.80 | Inflammatory Cells (0-3), mean ± SD (Lewis rats [2]): 1.33 ± 0.41 | Pannus (0-1), mean ± SD (Lewis rats [2]): 0.08 ± 0.20 | Saffranin-O/Fast Green Staining (0-4), mean ± SD (Lewis rats [2]): 1.25 ± 0.69 | Tidemark Integrity (0-1) (Lewis rats [2]): 0 | Total Mankin Score (0-14), mean ± SD (Lewis rats [2]): 3.67 ± 1.86 | Total Synovitis Score (0-10), mean ± SD (Lewis rats [2]): 3.25 ± 1.54 | lesions at necropsy versus vehicle ([3]; 10 mg/kg, evaluated three times): fewer lesions at necropsy than those mice dosed with vehicle | lesions found per animal ([3]; Study 1, 10 mg/kg oral daily): one lesion | mice with lesion regression ([3]; Study 1, 10 mg/kg oral daily): four of six mice | mice with any lesions at necropsy ([3]; Study 1, 10 mg/kg oral daily, vehicle: four of four mice): two of six mice | Metabolites detected [4]: two major metabolites, M5 and M6, were detected
